Results on two compounds are retold here after patent EP0261891A2, “Pharmaceutical compositions containing etiochiolandione” (Progenics, Inc., priority 1986, dated 1988).

For data set [1] the following is noted: injection (i.m.) in man; cited from earlier work.
For data set [2] the following is noted: compared with DHEA; cited from earlier work.
Data set [3] in a line: Absorption and blood level profiles after oral suspensions, three-way crossover; serum alpha-ET by RIA. The data set is classed as in vivo, human. Particulars: 200 mg oral suspension, at 4 hours past administration.
Method: Each subject received all three drugs in randomized order with a one-week wash-out period between doses. Following an overnight fast, subjects received 200 mg of test drug suspended in approximately 6 oz of apple juice. Blood samples were drawn immediately prior to drug administration and at 15 minutes, 30 minutes, 1, 2, 4, 8, 12 and 24 hours.
Data set [4] is described as follows: Weight gain, food consumption, fat pad and alpha-ET blood level in normal rats fed steroid in diet for three weeks. The data set is classed as in vivo, Sprague-Dawley rats. Conditions: for FOOD CONSUMPTION: 0.367% in diet (dose from method). The method, then:
All of the above considerations make ET-dione not only suitable but preferred in the treatment of diabetes, obesity and blood suppressive disorders such as aplastic anemia.
Food consumption and body weight were measured weekly. Blood samples were taken at the end of the study for assay of alpha-ET by RIA and measurement of serum total cholesterol, HDL-cholesterol and triglycerides. Liver weight (absolute and % of body weight), total cholesterol, % of esterified cholesterol and triglycerides in the liver were also determined. In addition, epididymal fat pad weights were measured.

Data set [5] is described as follows: Second study: body weight gain and food consumption in rats on higher-fat diet with steroid. The data set is classed as in vivo, Sprague-Dawley rats. Conditions: for FOOD CONSUMPTION: Av.Wks 1 - 4 (control 23.4). The method, then: A second study was carried out on male Sprague-Dawley rats with initial starting weight of 272 ± 5 gms. […] On the last day of the study the animals were dosed with approximately 1 micro Ci of ^3H labeled material (Amersham) corresponding to the treatment they had received. Groups of three animals- were sacrificed at 1 hour, 4 hours and 12 hours after dosing, and the adrenals, gonads, liver, epididymal fat pads, and blood collected for analysis. Urine and feces were also collected during the post-tracer dosing period.

Where “and” joins values, the source holds several entries; their conditions need not be identical. Equal entries are not always repeated.

As for `C[C@]12CC[C@H](O)C[C@H]1CC[C@@H]1[C@@H]2CC[C@]2(C)C(=O)CC[C@@H]12` [Beta-ET, 5-beta-androstan-3-beta-ol-17-one], in data set [1], the pyrogenic effect entry is given as “little pyrogenic effect”. For the same compound, the “effectiveness in preventing the development of diabetes” value in data set [2] is “four times more effective than DHEA”.

`C[C@]12CCC(=O)C[C@H]1CC[C@@H]1[C@@H]2CC[C@]2(C)C(=O)CC[C@@H]12` [ET-dione, 5-beta-androstanedione]: in data set [3], the “free alpha-ET levels compared with alpha-ET or beta-ET administration” value is listed as “significantly higher”. In data set [4] (0.367% in diet), the “% W vs Control Day 21” value is recorded as -16.6%. Moreover, the “FOOD CONSUMPTION” value in data set [4] (Average, mean ± S.E. (control 25.6 ± 0.6), significantly different from control (p < 0.05)) is 23.4 ± 0.6 g/rat/day; in data set [4] (week 1, mean ± S.E. (control 26.8 ± 0.8)), 23.0 ± 0.6 g/rat/day; in data set [4] (week 2, mean ± S.E. (control 24.9 ± 0.6)), 24.6 ± 0.5 g/rat/day; in data set [4] (week 3, mean ± S.E. (control […] ± 0.6)), 22.6 ± 0.5 g/rat/day; in data set [5] (0.4% in diet) it was 22.0 g/day; in data set [5] (0.8% in diet), 20.6 g/day. Further, the “Weight” value in data set [4] (0.367% in diet, Day 0, mean ± S.E.) was determined as 260 ± 3 g; in data set [4] (0.367% in diet, Day 7, mean ± S.E. (control 308 ± 5)), 298 ± 2 g; in data set [4] (0.367% in diet, Day 14, mean ± S.E. (control 354 ± 6)) it was 341 ± 3 g; in data set [4] (0.367% in diet, Day 21, mean ± S.E. (control 381 ± 7)), 361 ± 3 g. In addition, the “W(g) (weight gain)” value in data set [4] (0.367% in diet, Day 7 (control 48)) was 38 g; in data set [4] (0.367% in diet, Day 14 (control 94)) it was 81 g; in data set [4] (0.367% in diet, Day 21 (control 121), significantly different from control (p < .05)), 101 g and 101+ g. The “Fat Pad as % of Body Wt” value in data set [4] (0.367% in diet, three weeks (control 1.02 ± 0.08)) is 0.97 ± 0.07%. Also, the “Fat Pad Wt” value in data set [4] (epididymal fat pad, 0.367% in diet, three weeks (control 3.88 ± 0.29)) is on record as 3.50 ± 0.26 g. The “% W vs Control Day 28” value is -18.6% in data set [5] (0.4% in diet) and -21.3% in data set [5] (0.8% in diet). The “BODY WEIGHT GAINS” value in data set [5] (0.4% in diet, Day 7 (control 56)) amounted to 44; in data set [5] (0.4% in diet, Day 14 (control 109)) it was 89; in data set [5] (0.4% in diet, Day 21 (control 145)), 117; in data set [5] (0.4% in diet, Day 28 (control 183)) it was 149; in data set [5] (0.8% in diet, Day 7 (control 56)), 34; in data set [5] (0.8% in diet, Day 14 (control 109)) it was 83. In addition, the “BODY WEIGHT GAINS” value in data set [5] (0.8% in diet, Day 21 (control 145)) turned out to be 112; in data set [5] (0.8% in diet, Day 28 (control 183)), 144. Further, in data set [5] (at all concentrations tested), the “effectiveness in reducing weight gain compared with alpha-ET” value is “almost twice as effective as alpha-ET”.
